The values that follow come from patent US20120244553A1, “BIOMARKER OF ALLERGIC DISEASE AND USE OF THE SAME” (UNIVERSITY OF TOYAMA, priority 2007, published 2012).

Entries after “also recorded” stand apart in the source; their conditions may differ.

For test [1], the system named is mosquito salivary gland extract-induced scratching behavior. The settings on record: mouse; cited from earlier work.
Test [2] concerns primary afferent. The conditions noted are these: sensitized mouse; cited from earlier work.
Test [3] relates to mice. The settings on record: animals such as mice; cited from earlier work.
Test [4] has as its system granzyme A-induced scratching behavior. In words: Suppression of scratching behavior induced by intradermal injection of granzyme A. The settings on record: naltrexone injected 15 minutes before granzyme A. Format: in vivo, mouse. As for the experimental part:
(§1) On the day before the experiment, the hair on the rostral back of each mouse was removed. On the day of the experiment, the mouse was left in an observation cage for 1 hour to familiarize the mouse with the environment. After the familiarization, granzyme A (0.1 to 100 μg/site) or ESGM (10 μg/50 μL) was intradermally injected to the rostral back of the mouse. The mouse was returned to the observation cage (13×9×30 cm) immediately after the administration, and the behavior with no observer present was filmed with an 8-mm video camera. A protease inhibitor in an amount of 0.05 mL per 10 g of body weight of the mouse was injected into the tail vein 30 seconds before the administration of ESGM. Naltrexone in an amount of 0.1 mL per 10 g of body weight of the mouse was intradermally injected 15 minutes before the administration of granzyme A. The behavior after the injection was observed by playing back the video. Scratching behavior was determined by counting the number of times there was scratching of the injection portion and nearly areas with the hind paws. A mouse usually scratches several times for about 1 second, and a series of this behavior was determined as one instance of scratching behavior.

Test [5] has as its system normal mice. In words: Behavior experiment: scratching behavior after intradermal injection of granzyme A. The format is in vivo, mouse. As to the method:
as §1

Take `CN1CCCC(n2nc(Cc3ccc(Cl)cc3)c3ccccc3c2=O)CC1` (centres unmarked) [azelastine]: in test [1], the “Effect on scratching behavior increased by repetitive injections of mosquito salivary gland extract” value is “is suppressed”. For the same molecule, the “Effect on enhanced activity of primary afferent after mosquito salivary gland extract injection” value in test [2] is recorded as “suppressed”.

As to `NCCc1c[nH]cn1` [histamine], the “Scratching behavior caused by histamine” value in test [3] is “does not cause scratching behavior”.

For `O=C1CC[C@@]2(O)[C@H]3Cc4ccc(O)c5c4[C@@]2(CCN3CC2CC2)[C@H]1O5` [naltrexone], in test [4], the “Effect on scratching behavior induced by intradermal injection of granzyme A” value is recorded as “suppressed”.

Regarding `CC(C)(C)c1ccc(C(O)CCCN2CCC(C(O)(c3ccccc3)c3ccccc3)CC2)cc1` (centres unmarked) [terfenadine], the “Effect on scratching behavior increased by repetitive injections of mosquito salivary gland extract” value in test [1] was “is not suppressed”. In addition, in test [2], the “Effect on enhanced activity of primary afferent after mosquito salivary gland extract injection” value is reported as “not suppressed”.

B1: granzyme A: serine protease expressed in CD4+ T cells; intradermally injected into mice to induce scratching (protein, listed as Homo sapiens)
chain: MRNSYRFLASSLSVVVSLLLIPEDVCEKIIGGNEVTPHSRPYMVLLSLDRKTICAGALIAKDWVLTAAHCNLNKRSQVILGAHSITREEPTKQIMLVKKEFPYPCYDPATREGDLKLLQLTEKAKINKYVTILHLPKKGDDVKPGTMCQVAGWGRTHNSASWSDTLREVNITIIDRKVCNDRNHYNFNPVIGMNMVCAGSLRGGRDSCNGDSGSPLLCEGVFRGVTSFGLENKCGDPRGPGVYILLSKKHLNWIIMTIKGAV
Take B1: the “Dose giving peak scratching behavior” value in test [5] (intradermal injection) is given as 10 μg/site. Moreover, in test [5] (intradermal injection to rostral back, 0.1 to 100 μg/site), the “Scratching behavior induced by intradermal injection” value is “an itching reaction occurred; also recorded: induced; also recorded: induction of scratching behavior”.
